In patent publication US20250145576A1, “CATHEPSIN K INHIBITOR, AND PREPARATION METHOD THEREFOR AND USE THEREOF” (SHANDONG NEW TIME PHARMACEUTICAL CO., LTD., priority 2022, published 2025):

Key:
[1] = Intrinsic clearance rate and half-life in rat liver microsomes; type: in vitro ADME; details: for half-life: rat
Description: 1 mL of a dichloromethane solution was respectively added into centrifuge tubes filled with test substance powders K2 (molecular formula C23H27N3O4, 4.6 mg), K3 (molecular formula C23H26FN3O4, 5.0 mg) and K4 (molecular formula C23H25F2N3O4, 5.6 mg) for dissolving, and subjected to ultrasonic treatment for 30 min to obtain a K2 stock solution with the mass concentration of 4.6 mg/mL, a K3 stock solution with the mass concentration of 5.0 mg/mL and a K4 stock solution with the mass concentration of 5.6 mg/mL. The stock solutions were sealedly stored in a refrigerator at −20° C. for later use. Before use, the stock solutions were gradually diluted with methanol to corresponding mass concentration to respectively prepare 0.02, 0.05, 0.22, 0.49, 0.96, 2.37 and 4.90 ng/mL of K2 series standard sample working solutions, 0.02, 0.05, 0.10, 0.19, 1.00, 2.01 and 4.93 ng/mL K3 series standard sample working solutions, and 0.10, 0.20, 0.53, 0.96, 2.42, 5.10 and 10.10 ng/mL K4 series standard sample working solutions.
5 μL of the test drugs, 2 μL of rat liver microsomes and 468 μL of a PBS buffer solution were taken by using a pipette and prepared a premixed solution. The premixed solution was incubated for 5 min in a water bath kettle at 37° C., 47.5 μL of the premixed solution was taken after the incubation was finished, and the premixed solution, 100 μL of ice-cold acetonitrile and 2.5 μL of a PBS buffer solution were added to another new tube after to be gently mixed evenly to obtain a control group. The reaction was started by adding 22.5 μL of a NADPH solution to the remaining premixed solution, the reaction solution was gently pipetted, and the reaction was stopped by immediately taking 50 μL of the premixed solution and 100 μL of acetonitrile in a new tube. Then the incubation liquid was put into the water bath for incubation, 50 μL of the incubation liquid was respectively taken at 5 min, 10 min, 20 min, 30 min, 45 min, 60 min and 90 min, and the reaction was terminated by adding 100 μL of acetonitrile. The reaction solution was centrifuged at 12,000 r/min for 10 min, and the supernatant was taken and detected on a machine.
• Chromatographic column: Hypersil GOLD 100*2.1 mm 3 μm liquid chromatography column • Mobile phase: 0.1% formic acid aqueous solution (A); and 100% acetonitrile (B) • Gradient elution (0-1 min: 50% B, 1-5 min: 50% B-90% B, 5-7 min: 90% B, 7-7.1 min: 50% B, and 7.1-10 min: 50% B) • Flow rate: 0.3 ml/min; column temperature: 40° C.; and injection volume: 5 μL […]
Sample solutions were subjected to sample injection analysis under the chromatographic and mass spectrometry conditions, and the peak areas were recorded. […]

Cathepsin S = assay: Screening of Cathepsin S, fluorescence; type: biochemical; details: >> inhibition rate did not exceed 20% at test concentration; > greater than 35%; ≈ about 50%; < less than 50%
Description: (§1) 10 μL of a buffer, a Cat S inhibitor and test compounds (1 μM and 10 μM) were added to 96-well plates to serve as an EC well, an IC well and an S well, respectively; 50 μL of a Cat B enzyme solution was added into all the wells respectively and the mixture was incubated for 10-15 min at room temperature to establish an enzyme inhibitor complex; 40 μL of a Cat S substrate solution was added into all the wells and the mixture was incubated for 30-60 min at room temperature; and the final volume of the reaction was 100 μL.
(§2) The screening method was the same as above, the concentrations of the test compounds were set between 0.1 nM and 10 μM, 4-5 concentrations were selected for detection, IC50 curves were drawn, and IC50 values were calculated.

Cathepsin B = Cathepsin B (Homo sapiens (Human), UniProt P07858); assay: Screening of Cathepsin B, fluorescence; type: biochemical; details: >> inhibition rate did not exceed 20% at test concentration; > greater than 35%; ≈ about 50%; < less than 50%
Description: as §1, with “Cat B” for “Cat S”
as §2

ICR mice = assay: In-vivo toxicity study, single and multiple i.p. administration; details: for body weight vs vehicle group: all P>0.05
Description: Male ICR mice of 6-8 weeks were used as experimental subjects and randomly divided according to body weight after adaptive feeding for one week. Then compounds of different concentrations were prepared and used for single-administration and multiple-administration experiments by intraperitoneal injection (i.p), and a vehicle of the same component was used as a reference.
During this period, the body weight of the mice was measured daily. […] In the multiple-administration experiment, the administration doses of 50 mg/kg and 25 mg/kg were selected for administration at the frequency of once a day.

Cathepsin K = Cathepsin K (Homo sapiens (Human), UniProt P43235); assay: Cat K inhibitor screening kit, AFC substrate fluorescence; type: biochemical
Description: Reagent information: Cat K inhibitor screening kit: batch number, 6L23K01500; supplier, BiVision. Drug preparation: compounds were dissolved in DMSO and prepared into 10 mM stock solutions. When in use, the stock solutions were prepared into the required concentrations by using a buffer.
Cathepsin K (CTSK, EC 3.4.22.38) is a lysosomal cysteine protease, participates in osteoclastic bone remodeling and resorption, and can further degrade collagen, gelatin and elastin. The cathepsin K inhibitor screening kit from Biovision uses the ability of the active cathepsin K to cleave a synthetic AFC-based peptide substrate to release AFC and the AFC can be easily quantified by using a fluorometer or fluorescent microplate reader. In the presence of a specific cathepsin K specific inhibitor, the cleavage of the substrate is reduced/eliminated, resulting in a reduction or complete loss of AFC fluorescence. The simple and high-throughput adaptive assay kit can be used to screen/study/characterize a potential inhibitor of the cathepsin K.
as §1, with “20 μL” for “10 μL”, “Cat K” for “Cat S”, “Cat K” for “Cat B”, “complex; 30” for “complex; 40”
The screening method was the same as 1.1, the concentrations of the test compounds were set between 0.1 nM and 10 μM, 4-5 concentrations were selected for detection, IC50 curves were drawn, and IC50 values were calculated.

C4-2B cells = assay: Migration, invasion and adhesion of C4-2B cells; type: cell-based; details: preliminary

Sequence of Cathepsin K (P43235 115-329): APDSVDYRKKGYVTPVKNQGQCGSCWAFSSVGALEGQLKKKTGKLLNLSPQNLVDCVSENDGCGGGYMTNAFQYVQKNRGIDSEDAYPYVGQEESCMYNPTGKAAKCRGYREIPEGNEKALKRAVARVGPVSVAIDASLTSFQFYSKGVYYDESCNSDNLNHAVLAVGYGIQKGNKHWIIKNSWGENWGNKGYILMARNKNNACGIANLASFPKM

| SMILES | IC50 (Cathepsin K) [nM] | half-life [1] [min] | Cat S/K ratio of inhibitory activities (Cathepsin S) | Cat B/K ratio of inhibitory activities (Cathepsin B) | further results |
| --- | --- | --- | --- | --- | --- |
| CC(C)(C)CN(Cc1ccc(-c2ccc(F)cc2)cc1)c1nccc(C#N)n1 [Compound K4, 2-[(2,2-dimethylpropyl){[4-(4-fluorophenyl)phenyl]methyl}amino]pyrimidine-4-carbonitrile] |  |  |  |  | reduction of clearance rate compared with Ref-03 [1]: 2 times |
| CN1CCN(c2nc(-c3ccc(CN(CC(C)(C)C)c4nccc(C#N)n4)cc3)cs2)CC1 [Compound K18, 2-((4-(2-(4-methylpiperazin-1-yl)thiazol-4-yl)benzyl) (neopentyl)amino)pyrimidine-4-carbonitrile] | 10 to 100 |  | >>5,780 | >>5,780 | in-vivo toxicity (overall) (ICR mice; ICR mice): relatively low in-vivo toxicity; body weight vs vehicle group (ICR mice; i.p. 50 mg/kg and 25 mg/kg once a day, one week): No significant difference; histopathology of liver, kidneys and heart vs vehicle group (ICR mice; multiple administration 50 mg/kg and single administration 500 mg/kg): no obvious pathological change was observed; body weight vs vehicle group (ICR mice; single i.p. administration 500 mg/kg and 300 mg/kg): No significant difference; migration, invasion and adhesion of C4-2B cells (C4-2B cells): inhibit the migration, invasion and adhesion processes of the C4-2B cells in a concentration-dependent manner |
| O=C1COCC1NC(=O)[C@@H]1CCCC[C@H]1C(=O)N1CCc2[nH]c3ccccc3c2C1 (stereo partly drawn) [Compound K20, (1R,2R)-2-(2,3,4,5-tetrahydro-1H-pyrido[4,3-b]indole-2-carbonyl)-N-(4-oxotetrahydrofuran-3-yl)-cyclohexane-1-carboxamide] | 10 to 100 | 46.6 |  |  |  |

More lines, main results first:

| IC50 (Cathepsin K) [nM] | half-life [1] [min] | SMILES | Cat S/K ratio of inhibitory activities (Cathepsin S) | Cat B/K ratio of inhibitory activities (Cathepsin B) | further results |
| --- | --- | --- | --- | --- | --- |
| 10 to 100 | 42.4 | O=C1COC[C@@H]1NC(=O)[C@@H]1CCCC[C@H]1C(=O)N1CCc2c([nH]c3c(F)cccc23)C1 [Compound K21, (1R,2R)-2-(8-fluoro-2,3,4,9-tetrahydro-1H-pyrido[3,4-b]indole-2-carbonyl)-N—((S)-4-oxotetrahydrofuran-3-yl)cyclohexane-1-carboxamide] | >710 | >710 |  |
| 10 to 100 | 88.5 | O=C1COC[C@@H]1NC(=O)[C@@H]1CCCC[C@H]1C(=O)N1CCc2c([nH]c3c(F)cc(F)cc23)C1 [Compound K22, (1R,2R)-2-(6,8-difluoro-2,3,4,9-tetrahydro-1H-pyrido[3,4-b]indole-2-carbonyl)-N—((S)-4-oxotetrahydrofuran-3-yl)cyclohexane-1-carboxamide] |  |  |  |
